From patent publication US8063221B2, “Aminoquinolones as GSK-3 inhibitors” (Kyorin Pharmaceutical Co., Ltd., priority 2006, dated 2011) come the findings set out here.

By IC50 is commonly meant the concentration that inhibits the measured activity by half. What is called MIC is the lowest concentration found to suppress growth.

≈ marks a conversion by molar mass, not a printed value.

The target in the first test is T1, recombinant full-length human GSK3β (Homo sapiens, UniProt P49841).
T1 construct: recombinant full-length human GSK3β (Upstate); purchased Upstate
T1 sequence (P49841 whole entry): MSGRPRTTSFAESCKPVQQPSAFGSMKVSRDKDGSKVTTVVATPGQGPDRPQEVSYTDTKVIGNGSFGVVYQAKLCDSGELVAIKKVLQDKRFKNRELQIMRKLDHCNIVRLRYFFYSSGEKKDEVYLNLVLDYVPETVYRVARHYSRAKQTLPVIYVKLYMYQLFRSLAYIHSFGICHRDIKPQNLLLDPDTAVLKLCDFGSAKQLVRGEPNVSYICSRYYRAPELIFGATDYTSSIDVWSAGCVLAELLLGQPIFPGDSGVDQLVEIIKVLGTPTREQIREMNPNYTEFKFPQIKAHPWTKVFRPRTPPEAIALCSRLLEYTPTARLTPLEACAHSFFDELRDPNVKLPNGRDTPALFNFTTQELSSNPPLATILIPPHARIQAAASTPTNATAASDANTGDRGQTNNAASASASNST
Nature of the test: Luciferase-coupled cell-free GSK3β kinase assay. Format: biochemical. The settings on record: Table 2. Here is the method:
For compounds in Tables 1 and 2, IC50 (μM) for GSK3β enzyme in cell free assay is provided as follows:
Luciferase-Coupled Protein Kinase Assays
All coupled-luciferase assays are performed by using a brief incubation with firefly luciferase (Promega) after completion of the kinase assay. KinaseGlo Plus is used for reading kinase reactions with ATP>10 μM, KinaseGlo for ATP <10 μM. The assay volume in a 384-well plate for the kinase reaction is 30 microliters.
10-25 ng of recombinant full-length human GSK3β (Upstate) is incubated in the presence or absence of compound at varying concentrations for 1 hour at 30 degrees Celsius in 20 mM MOPS, pH 7.0, 10 mM magnesium acetate, 0.2 mM EDTA, 2 mM EGTA, 30 mM magnesium chloride, 62.5 μM phospho-glycogen synthase peptide-2, 5 μM ATP, 10 mM β-glycerol phosphate, 1 mM sodium orthovanadate and 1 mM dithiothreitol. Proceed to KinaseGlo luciferase reaction (see below).
Following the completion of the kinase reaction an equal volume of KinaseGlo or KinaseGlo Plus luciferase reagent (Promega) is added and the luminescence read using a luminescence plate reader within 5-10 minutes. Compound activity is expressed as % inhibition relative to maximal inhibition observed at the maximal dose and IC50 values then calculated using curve fitting software (GraphPad Prizm).
Take `CC(C)C[C@H]1COc2c(NCCNc3ccccn3)c(F)c(N)c3c(=O)c(C(=O)O)cn1c23` [compound 51]: the IC50 was under 100 nM.

As for `CC1COc2c(NCCNc3cccc(F)n3)c(F)c(N)c3c(=O)c(C(=O)O)cn1c23` (stereo not drawn) [compound 14], the IC50 was under 100 nM.

As to `CC1COc2c(NCCc3ccncc3)c(F)c(N)c3c(=O)c(C(=O)O)cn1c23` (stereo not drawn) [compound 3], the IC50 was in the range of 100 to 500 nM.

As to `CC(C)C[C@H]1COc2c(NCCCc3ccccc3)c(F)c(N)c3c(=O)c(C(=O)O)cn1c23` [compound 50], the IC50 was under 100 nM.

In the case of `CC1COc2c(NCCCN3CCCC3=O)c(F)c(N)c3c(=O)c(C(=O)O)cn1c23` (stereo not drawn) [compound 5], the IC50 is under 100 nM.

Regarding `CC1(C)COc2c(NCCCc3ccccc3)c(F)c(N)c3c(=O)c(C(=O)O)cn1c23` [compound 38], the IC50 was under 100 nM.

Regarding `CC(C)OCCCNc1c(F)c(N)c2c(=O)c(C(=O)O)cn3c2c1OCC3(C)C` [compound 40], the IC50 was 100 to 500 nM.

`Nc1c(F)c(NC(=O)CCc2ccccc2)c(F)c2c1c(=O)c(C(=O)O)cn2C1CC1` [Example 126]: the IC50 is over 1000 nM.

Turning to `CC1(C)COc2c(NCCCc3ccccc3)c(F)c(N)c3c(=O)c(C(=O)O)cn(c23)C1` [compound 25], the IC50 is under 100 nM.

In the case of `C[C@H]1COc2c(NCCCn3cnc4ccccc43)c(F)c(N)c3c(=O)c(C(=O)O)cn1c23` [compound 19], the IC50 is under 100 nM.

Turning to `CCOC(=O)CCNc1c(F)c(N)c2c(=O)ccn(C3CC3)c2c1OC` [Example 125], the IC50 lay in the range of 100 to 500 nM.

Consider `CC(C)OCCCNc1c(F)c(N)c2c(=O)c(C(=O)O)cn3c2c1OCC3C` (stereo not drawn) [compound 4], for which the IC50 was 100 to 500 nM.

Regarding `CC(C)[C@H]1COc2c(NCCCn3ccnc3)c(F)c(N)c3c(=O)c(C(=O)O)cn1c23` [compound 54], the IC50 is under 100 nM.

On to `Nc1c(F)c(NCCNc2ccccn2)c2c3c1c(=O)c(C(=O)O)cn3[C@@H](CF)CO2` [Example 134], for which the IC50 is under 100 nM.

As for `CC(C)[C@@H]1COc2c(NCCCc3ccccc3)c(F)c(N)c3c(=O)c(C(=O)O)cn1c23` [compound 64], the IC50 was under 100 nM.

On to `Nc1c(F)c(NCCNc2ccccn2)cc2c1c(=O)c(C(=O)O)cn2C1CCOCC1` [Example 135], for which the IC50 is under 100 nM.

For `COc1c(NCCCn2ccnc2)c(F)c(N)c2c(=O)ccn(C3CC3)c12` [compound 2], the IC50 is 100 to 500 nM.

In the case of `Nc1c(F)c(NCCCc2ccccc2)c2c3c1c(=O)c(C(=O)O)cn3CCO2` [compound 8], the IC50 was over 1000 nM.

With `Nc1c(F)c(NCCNc2ccccn2)c2c3c1c(=O)c(C(=O)O)cn3[C@@H](c1ccccc1)CO2` [Example 124], the IC50 fell in the range of 100 to 500 nM.

A further test deals with E. coli, ATCC8739. Nature of the test: Antibacterial activity (MIC), E. coli. The settings on record: Escherichia coli, ATCC8739, Table 2; E. coli ATCC8739; read-out: Antimicrobial MIC [μM] E. Coli. Format: cell-based. From the text:
(§1) As used herein, a minimum inhibitory concentration (MIC) for bacterial growth assay is the lowest level of a compound needed to cause an inhibition to bacterial growth in culture medium. In certain embodiments, the antibacterial activity of compounds herein, measured as MIC.
(§2) In certain embodiments, GSK3 inhibitors provided herein are substantially free of antibacterial activity or having very low antibacterial activity. The antibacterial activity can be measured by methods known in the art by estimating a minimum inhibitory concentration (MIC) for test compounds. A MIC is the lowest level of a compound needed to cause an inhibition to bacterial growth in a culture medium. […] (Clinical and Laboratory Standards Institute. Methods for Dilution Antimicrobial Susceptibility Tests for Bacteria That Grow Aerobically; Approved Standard-Sixth Edition: CLSI document […]. CLSI, Wayne, Pa. (2003))
(§3) Antibacterial activity for E. coli, ATCC8739 andS. aureus Smith expressed as MIC (μM) is provided as follows: […]
`CC(C)C[C@H]1COc2c(NCCNc3ccccn3)c(F)c(N)c3c(=O)c(C(=O)O)cn1c23` [compound 51]: the MIC is 10 to 50 µM (≈ 4.55 to 22.8 µg/mL).

Consider `CC1COc2c(NCCNc3cccc(F)n3)c(F)c(N)c3c(=O)c(C(=O)O)cn1c23` (stereo not drawn) [compound 14], for which the MIC was in the range of 10 to 50 µM (≈ 4.31 to 21.6 µg/mL).

As for `CC1COc2c(NCCc3ccncc3)c(F)c(N)c3c(=O)c(C(=O)O)cn1c23` (stereo not drawn) [compound 3], the MIC was in the range of 0.5 to 10 µM (≈ 0.199 to 3.98 µg/mL).

For `CC(C)C[C@H]1COc2c(NCCCc3ccccc3)c(F)c(N)c3c(=O)c(C(=O)O)cn1c23` [compound 50], the MIC lay in the range of 10 to 50 µM (≈ 4.54 to 22.7 µg/mL).

Turning to `CC1COc2c(NCCCN3CCCC3=O)c(F)c(N)c3c(=O)c(C(=O)O)cn1c23` (stereo not drawn) [compound 5], the MIC was over 50 µM.

For `CC1(C)COc2c(NCCCc3ccccc3)c(F)c(N)c3c(=O)c(C(=O)O)cn1c23` [compound 38], the MIC lay in the range of 10 to 50 µM (≈ 4.25 to 21.3 µg/mL).

In the case of `CC(C)OCCCNc1c(F)c(N)c2c(=O)c(C(=O)O)cn3c2c1OCC3(C)C` [compound 40], the MIC was over 50 µM.

Take `Nc1c(F)c(NC(=O)CCc2ccccc2)c(F)c2c1c(=O)c(C(=O)O)cn2C1CC1` [Example 126]: the MIC was 0.5 to 10 µM (≈ 0.214 to 4.27 µg/mL).

`CC1(C)COc2c(NCCCc3ccccc3)c(F)c(N)c3c(=O)c(C(=O)O)cn(c23)C1` [compound 25]: the MIC was 0.5 to 10 µM (≈ 0.22 to 4.39 µg/mL).

Turning to `C[C@H]1COc2c(NCCCn3cnc4ccccc43)c(F)c(N)c3c(=O)c(C(=O)O)cn1c23` [compound 19], the MIC was in the range of 10 to 50 µM (≈ 4.51 to 22.6 µg/mL).

Regarding `CCOC(=O)CCNc1c(F)c(N)c2c(=O)ccn(C3CC3)c2c1OC` [Example 125], the MIC is over 50 µM.

In the case of `CC(C)OCCCNc1c(F)c(N)c2c(=O)c(C(=O)O)cn3c2c1OCC3C` (stereo not drawn) [compound 4], the MIC is over 50 µM.

In the case of `CC(C)[C@H]1COc2c(NCCCn3ccnc3)c(F)c(N)c3c(=O)c(C(=O)O)cn1c23` [compound 54], the MIC was over 50 µM.

Take `Nc1c(F)c(NCCNc2ccccn2)c2c3c1c(=O)c(C(=O)O)cn3[C@@H](CF)CO2` [Example 134]: the MIC was under 0.5 µM.

As for `CC(C)[C@@H]1COc2c(NCCCc3ccccc3)c(F)c(N)c3c(=O)c(C(=O)O)cn1c23` [compound 64], the MIC was 0.5 to 10 µM (≈ 0.22 to 4.39 µg/mL).

As for `Nc1c(F)c(NCCNc2ccccn2)cc2c1c(=O)c(C(=O)O)cn2C1CCOCC1` [Example 135], the MIC was 10 to 50 µM (≈ 4.41 to 22.1 µg/mL).

On to `COc1c(NCCCn2ccnc2)c(F)c(N)c2c(=O)ccn(C3CC3)c12` [compound 2], for which the MIC was over 50 µM.

In the case of `Nc1c(F)c(NCCCc2ccccc2)c2c3c1c(=O)c(C(=O)O)cn3CCO2` [compound 8], the MIC fell in the range of 10 to 50 µM (≈ 3.97 to 19.9 µg/mL).

In the case of `Nc1c(F)c(NCCNc2ccccn2)c2c3c1c(=O)c(C(=O)O)cn3[C@@H](c1ccccc1)CO2` [Example 124], the MIC lay within 10 to 50 µM (≈ 4.75 to 23.8 µg/mL).

A further test concerns S. aureus Smith. Kind of test: Antibacterial activity (MIC), S. aureus. Type of test: cell-based. The settings on record: Staphylococcus aureus, Table 2; S. aureus Smith; read-out: Antimicrobial MIC [μM] S. aureus.
Text: as §1, §2, §3
As to `CC(C)C[C@H]1COc2c(NCCNc3ccccn3)c(F)c(N)c3c(=O)c(C(=O)O)cn1c23` [compound 51], the MIC lay in the range of 10 to 50 µM (≈ 4.55 to 22.8 µg/mL).

For the compound `CC1COc2c(NCCNc3cccc(F)n3)c(F)c(N)c3c(=O)c(C(=O)O)cn1c23` (stereo not drawn) [compound 14], the MIC is 0.5 to 10 µM (≈ 0.216 to 4.31 µg/mL).

Consider `CC1COc2c(NCCc3ccncc3)c(F)c(N)c3c(=O)c(C(=O)O)cn1c23` (stereo not drawn) [compound 3], for which the MIC fell in the range of 0.5 to 10 µM (≈ 0.199 to 3.98 µg/mL).

Consider `CC(C)C[C@H]1COc2c(NCCCc3ccccc3)c(F)c(N)c3c(=O)c(C(=O)O)cn1c23` [compound 50], for which the MIC lay within 10 to 50 µM (≈ 4.54 to 22.7 µg/mL).

With `CC1COc2c(NCCCN3CCCC3=O)c(F)c(N)c3c(=O)c(C(=O)O)cn1c23` (stereo not drawn) [compound 5], the MIC fell in the range of 0.5 to 10 µM (≈ 0.209 to 4.18 µg/mL).

In the case of `CC1(C)COc2c(NCCCc3ccccc3)c(F)c(N)c3c(=O)c(C(=O)O)cn1c23` [compound 38], the MIC lay in the range of 10 to 50 µM (≈ 4.25 to 21.3 µg/mL).

In the case of `CC(C)OCCCNc1c(F)c(N)c2c(=O)c(C(=O)O)cn3c2c1OCC3(C)C` [compound 40], the MIC was over 50 µM.

On to `Nc1c(F)c(NC(=O)CCc2ccccc2)c(F)c2c1c(=O)c(C(=O)O)cn2C1CC1` [Example 126], for which the MIC was 0.5 to 10 µM (≈ 0.214 to 4.27 µg/mL).

As for `CC1(C)COc2c(NCCCc3ccccc3)c(F)c(N)c3c(=O)c(C(=O)O)cn(c23)C1` [compound 25], the MIC was 0.5 to 10 µM (≈ 0.22 to 4.39 µg/mL).

Regarding `C[C@H]1COc2c(NCCCn3cnc4ccccc43)c(F)c(N)c3c(=O)c(C(=O)O)cn1c23` [compound 19], the MIC lay in the range of 0.5 to 10 µM (≈ 0.226 to 4.51 µg/mL).

Regarding `CCOC(=O)CCNc1c(F)c(N)c2c(=O)ccn(C3CC3)c2c1OC` [Example 125], the MIC was over 50 µM.

On to `CC(C)OCCCNc1c(F)c(N)c2c(=O)c(C(=O)O)cn3c2c1OCC3C` (stereo not drawn) [compound 4], for which the MIC was 0.5 to 10 µM (≈ 0.197 to 3.93 µg/mL).

As to `CC(C)[C@H]1COc2c(NCCCn3ccnc3)c(F)c(N)c3c(=O)c(C(=O)O)cn1c23` [compound 54], the MIC is 10 to 50 µM (≈ 4.29 to 21.5 µg/mL).

With `Nc1c(F)c(NCCNc2ccccn2)c2c3c1c(=O)c(C(=O)O)cn3[C@@H](CF)CO2` [Example 134], the MIC was under 0.5 µM.

Turning to `CC(C)[C@@H]1COc2c(NCCCc3ccccc3)c(F)c(N)c3c(=O)c(C(=O)O)cn1c23` [compound 64], the MIC was 0.5 to 10 µM (≈ 0.22 to 4.39 µg/mL).

On to `Nc1c(F)c(NCCNc2ccccn2)cc2c1c(=O)c(C(=O)O)cn2C1CCOCC1` [Example 135], for which the MIC was 10 to 50 µM (≈ 4.41 to 22.1 µg/mL).

As to `COc1c(NCCCn2ccnc2)c(F)c(N)c2c(=O)ccn(C3CC3)c12` [compound 2], the MIC is over 50 µM.

As to `Nc1c(F)c(NCCCc2ccccc2)c2c3c1c(=O)c(C(=O)O)cn3CCO2` [compound 8], the MIC was in the range of 10 to 50 µM (≈ 3.97 to 19.9 µg/mL).

For the compound `Nc1c(F)c(NCCNc2ccccn2)c2c3c1c(=O)c(C(=O)O)cn3[C@@H](c1ccccc1)CO2` [Example 124], the MIC lay within 10 to 50 µM (≈ 4.75 to 23.8 µg/mL).
